The results in this text go back to article PMC11314410, “Synthesis and Anti-Trypanosoma cruzi Activity of New Pyrazole-Thiadiazole Scaffolds” (Molecules, 2024).

Data set [1] can be described thus: Toxicity in mammalian cells (CellTiter Glo, 72 h). Type of data set: cell-based. As to conditions: African green monkey, Vero cells; 72 h, ATP levels; read-out: Cytotoxicity Vero Cells CC50. As for the experimental part: Vero cell cultures grown in RPMI 1640 medium containing 10% fetal bovine serum (FBS) were cultured at 37 °C in a humidified atmosphere of 5% CO2 [82]. The cultures were used for drug screening assays and to obtain culture-derived trypomastigotes of T. cruzi.
Vero cells (1.5 ×10^4 cells/well), cultivated for 24 h at 37 °C in white 96-well plates with clear bottoms, were used to assess the toxicity of the pyrazole-thiadiazole derivatives (series 1 and 2). After washing, the cells were incubated for 72 h at 37 °C with different drug concentrations (500–1.95 μM). Cell viability was measured by adding 20 μL/well of CellTiter Glo reagent (Promega Corporation, Madison, WI, USA). This cell viability kit generates a luminescent signal proportional to the amount of ATP. The luminescence readout was performed using the Glomax Microplate Reader (Promega Corporation, Madison, WI, USA). Thus, the 50% cytotoxicity concentration (CC50), which reduces the cell viability by 50% (CC50), was calculated with Prism GraphPad software (version 8.2.1).
On the technique in general: In ATP-based viability assays light output follows the ATP content of the culture.

The test system of data set [2] is Trypomastigotes of T. cruzi (Dm28c-Luc). The data set can be described thus: microbe, parasite or virus in culture. The data set is classed as cell-based, Trypanosoma cruzi. As to conditions: for IC50 / IC90: Trypanosoma cruzi, Dm28c-Luc, 24 h treatment; for IC50: 24 h, mean ± SD, read-out: Anti-T. cruzi Activity Trypomastigotes IC50; for IC90: read-out: Anti-T. cruzi Activity Trypomastigotes IC90. On the procedure:
(§1) Genetically modified T. cruzi parasites, of clone Dm28c (TcI) expressing the firefly luciferase enzyme gene (Dm28c-Luc), were kindly provided by Dr. Cristina Henriques. T. cruzi Dm28c-Luc was maintained in a Vero cell cultivated in RPMI 1640 medium supplemented with 10% FBS. At 4-day post-infection (dpi), trypomastigotes, released in the cell culture supernatant, were harvested, followed by sedimentation (4000 rpm/20 min/4 °C) and quantification in a Neubauer chamber. Isolated trypomastigotes were used in the phenotypic screening assays as well as the antiparasitic activity in 3D cardiac microtissues, recovery (washout), and drug combination assays.
Drug screening was performed against clinically relevant forms of T. cruzi (amastigotes and trypomastigotes). Trypomastigotes, Dm28c-Luc (1 × 10^6 parasites/well), were added to 96-well plates and incubated with pyrazole-thiadiazole derivatives or Bz (100–0.41 µM). After 24 h of treatment (37 °C), the viability of the parasites was analyzed by adding a D-Luciferin solution (300 µg/mL) and luminescence was measured in the Glomax microplate reader.

In data set [3] the test system is Intracellular amastigotes of T. cruzi (Dm28c-Luc). Description: microbe, parasite or virus in culture. Type of data set: cell-based, Trypanosoma cruzi. As to conditions: for IC50 / IC90: Trypanosoma cruzi; for IC90: read-out: Anti-T. cruzi Activity Intracellular Amastigotes IC90. As for the experimental part:
as §1
The activity of pyrazole-thiadiazole derivatives against intracellular amastigotes was evaluated in 24 h-T. cruzi infected Vero cell cultures (1.5 × 10^4 cells/well) at a 10:1 ratio. The cultures were washed and incubated with serial dilutions of the derivatives or Bz (100–0.41 µM). Drug treatment was carried out for 72 h at 37 °C and the parasite viability was determined by luminescence readout after D-Luciferin substrate addition (300 µg/mL). The reading was performed in the Glomax reader. The cell cultures incubated with the culture medium containing dimethylsulphoxide (DMSO; concentration ≤ 1%) were used as the […]. The concentrations required to inhibit parasite viability by 50% (IC50) and 90% (IC90) were calculated using Prism GraphPad software (version 8.2.1). The selectivity index (SI), which measures the window between cytotoxicity (CC50) and anti-T. cruzi activity (IC50), was calculated as CC50/IC50. A minimum of 3 independent assays in duplicate were performed.

Where [4] appears, read: Vero, read-out: Intracellular Amastigotes pIC50 (converted).
Where [5] appears, read: Dm28c-Luc in Vero cells, 72 h treatment, mean ± SD, read-out: Anti-T. cruzi Activity Intracellular Amastigotes IC50.
Where [6] appears, read: Dm28c-Luc in Vero cells, 72 h treatment, mean ± SD.

Like-named read-outs stand apart in the source and are kept apart here.

`Nc1nnc(-c2cnn(-c3ccccc3)c2)s1` [1a, 5-Amino-2-(1-phenyl-1H-pyrazol-4-yl)-1,3,4-thiadiazole] came in with a melting point of 289 to 291 °C. Further, in data set [1], the CC50 at 72 h was above 500 µM. Also, in data set [2], the “Trypomastigotes SI (CC50 of Vero cells/IC50 of trypomastigotes)” value (“Trypomastigotes SI” below) was above 5, the IC50 is above 100 µM and the IC90 is above 100 µM. For the same compound, the “Intracellular Amastigotes SI (CC50 of Vero cells/IC50 of intracellular amastigotes)” value (from here on “Intracellular Amastigotes SI”) in data set [3] is given as above 7.49. The IC50 in data set [3] (setting [4]) was 69.2 µM. The IC50 in data set [3] (setting [5]) turned out to be 68.6 ± 1.03 µM. In addition, in data set [3] (setting [6]), the IC90 is above 70 µM.
On to `Nc1nnc(-c2cnn(-c3cccc(Cl)c3)c2)s1` [1b, 5-Amino-2-(1-(3-chlorophenyl)-1H-pyrazol-4-yl)-1,3,4-thiadiazole], for which the melting point lay in the range of 310 to 311 °C. Moreover, the CC50 at 72 h in data set [1] is above 500 µM. In data set [2], the “Trypomastigotes SI” value is on record as above 5, the IC50 was above 100 µM and the IC90 is above 100 µM. For the same compound, the “Intracellular Amastigotes SI” value in data set [3] is recorded as above 7.73. The IC50 in data set [3] (setting [4]) was 67.6 µM. In addition, in data set [3] (setting [5]), the IC50 was 68.1 ± 2.99 µM. Moreover, the IC90 in data set [3] (setting [6]) was above 70 µM.
In the case of `Nc1nnc(-c2cnn(-c3cc(Cl)cc(Cl)c3)c2)s1` [1d, 5-Amino-2-(1-(3,5-dichlorophenyl)-1H-pyrazol-4-yl)-1,3,4-thiadiazole], the melting point is 283 to 285 °C. In data set [1], the CC50 at 72 h is above 500 µM. For the same compound, in data set [2], the “Trypomastigotes SI” value was above 5, the IC50 was above 100 µM and the IC90 was above 100 µM. The “Intracellular Amastigotes SI” value in data set [3] is above 8.29. In addition, in data set [3] (setting [4]), the IC50 was 58.9 µM. In data set [3] (setting [5]), the IC50 was determined as 58.7 ± 12.3 µM. The IC90 in data set [3] (setting [6]) is above 70 µM.
In turn, `Nc1nnc(-c2cnn(-c3ccc(Cl)c(Cl)c3)c2)s1` [1e, 5-Amino-2-(1-(3,4-dichlorophenyl)-1H-pyrazol-4-yl)-1,3,4-thiadiazole] gave a melting point of 313 to 315 °C. In addition, the CC50 at 72 h in data set [1] was above 500 µM. In data set [2], the “Trypomastigotes SI” value is above 5, the IC50 was above 100 µM and the IC90 is above 100 µM. For the same compound, the “Intracellular Amastigotes SI” value in data set [3] is recorded as above 25.64. Moreover, the IC50 in data set [3] (setting [4]) is 18.6 µM. Also, the IC50 in data set [3] (setting [5]) was 18.8 ± 2.28 µM. Further, the IC90 in data set [3] (setting [6]) amounted to 40.4 ± 13.3 µM.
With `Nc1nnc(-c2cnn(-c3ccc(Cl)cc3)c2)s1` [1f, 5-Amino-2-(1-(4-chlorophenyl)-1H-pyrazol-4-yl)-1,3,4-thiadiazole], the melting point lay within 328 to 330 °C. For the same compound, the CC50 at 72 h in data set [1] is above 500 µM. Further, in data set [2], the “Trypomastigotes SI” value is above 5, the IC50 was above 100 µM and the IC90 was above 100 µM. For the same compound, the “Intracellular Amastigotes SI” value in data set [3] is recorded as above 7.14. The IC50 in data set [3] (setting [4]) is above 70.8 µM. In addition, the IC50 in data set [3] (setting [5]) was above 70 µM. Also, the IC90 in data set [3] (setting [6]) was above 70 µM.
On to `Nc1nnc(-c2cnn(-c3ccc(F)cc3)c2)s1` [1g, 5-Amino-2-(1-(4-fluorophenyl)-1H-pyrazol-4-yl)-1,3,4-thiadiazole], for which the melting point lay within 335 to 337 °C. Also, in data set [1], the CC50 at 72 h was above 500 µM. In data set [2], the “Trypomastigotes SI” value is reported as above 5, the IC50 is above 100 µM and the IC90 is above 100 µM. The “Intracellular Amastigotes SI” value in data set [3] was above 7.14. Also, the IC50 in data set [3] (setting [4]) is above 70.8 µM. Moreover, in data set [3] (setting [5]), the IC50 was above 70 µM. In data set [3] (setting [6]), the IC90 is above 70 µM.
Compound `Nc1nnc(-c2cnn(-c3cccc(F)c3)c2)s1` [1h, 5-Amino-2-(1-(3-fluorophenyl)-1H-pyrazol-4-yl)-1,3,4-thiadiazole] yielded a melting point of 302 to 303 °C. Further, the CC50 at 72 h in data set [1] is above 500 µM. Moreover, in data set [2], the “Trypomastigotes SI” value was above 5, the IC50 was above 100 µM and the IC90 is above 100 µM. The “Intracellular Amastigotes SI” value in data set [3] is above 7.86. In addition, the IC50 in data set [3] (setting [4]) was 67.6 µM. Moreover, the IC50 in data set [3] (setting [5]) was 66.8 ± 3.37 µM. For the same compound, the concentration for an effect of 90% (IC90) in data set [3] (setting [6]) was above 70 µM.
In the case of `Nc1nnc(-c2cnn(-c3ccc(Br)cc3)c2)s1` [1i, 5-Amino-2-(1-(4-bromophenyl)-1H-pyrazol-4-yl)-1,3,4-thiadiazole], the melting point lay in the range of 340 to 341 °C. For the same compound, the CC50 at 72 h in data set [1] was above 500 µM. Also, in data set [2], the “Trypomastigotes SI” value is above 5, the IC50 was above 100 µM and the IC90 is above 100 µM. Further, the “Intracellular Amastigotes SI” value in data set [3] is recorded as above 17.53. Besides, the IC50 in data set [3] (setting [4]) is 28.2 µM. Besides, in data set [3] (setting [5]), the IC50 came out at 28.4 ± 1.77 µM. In data set [3] (setting [6]), the IC90 is above 70 µM.
The compound `Nc1nnc(-c2cnn(-c3cccc(Br)c3)c2)s1` [1j, 5-Amino-2-(1-(3-bromophenyl)-1H-pyrazol-4-yl)-1,3,4-thiadiazole] registered a melting point of 301 to 303 °C. In data set [1], the CC50 at 72 h is above 500 µM. In data set [2], the “Trypomastigotes SI” value is on record as above 5, the IC50 is above 100 µM and the IC90 was above 100 µM. Also, in data set [3], the “Intracellular Amastigotes SI” value is listed as above 7.14. Moreover, in data set [3] (setting [4]), the IC50 was above 70.8 µM. The IC50 in data set [3] (setting [5]) is above 70 µM. Moreover, in data set [3] (setting [6]), the IC90 was above 70 µM.
For `Nc1nnc(-c2cnn(-c3ccc([N+](=O)[O-])cc3)c2)s1` [1k, 5-Amino-2-(1-(4-nitrophenyl)-1H-pyrazol-4-yl)-1,3,4-thiadiazole], the melting point lay within 331 to 333 °C. Moreover, in data set [1], the CC50 at 72 h is above 500 µM. Further, in data set [2], the “Trypomastigotes SI” value is given as above 5, the IC50 was above 100 µM and the IC90 is above 100 µM. Also, in data set [3], the “Intracellular Amastigotes SI” value is recorded as above 8.16. In data set [3] (setting [4]), the IC50 was 58.9 µM. Moreover, the IC50 in data set [3] (setting [5]) worked out at 58.3 ± 12.8 µM. The IC90 in data set [3] (setting [6]) is above 70 µM.
`COc1ccc(-n2cc(-c3nnc(N)s3)cn2)cc1` [1l, 5-Amino-2-(1-(4-methoxyphenyl)-1H-pyrazol-4-yl)-1,3,4-thiadiazole]: the melting point is 298 to 300 °C. Moreover, in data set [1], the CC50 at 72 h is above 500 µM. Further, in data set [2], the “Trypomastigotes SI” value is on record as above 9.43, the IC50 stood at 53 ± 4.44 µM and the IC90 was above 100 µM. The “Intracellular Amastigotes SI” value in data set [3] is above 19.08. Further, the IC50 in data set [3] (setting [4]) was 24.5 µM. Besides, the IC50 in data set [3] (setting [5]) was 24.5 ± 4.21 µM. For the same compound, the IC90 in data set [3] (setting [6]) was above 70 µM.
In turn, `Nc1nnc(-c2cnn(-c3ccccc3)c2N)s1` [2a, 5-Amino-2-(5-amino-1-phenyl-1H-pyrazol-4-yl)-1,3,4-thiadiazole] had a melting point of 131 to 132 °C. Moreover, the CC50 at 72 h in data set [1] was above 500 µM. Besides, in data set [2], the “Trypomastigotes SI” value was above 5, the IC50 is above 100 µM and the IC90 was above 100 µM. The “Intracellular Amastigotes SI” value in data set [3] is above 7.14. Further, in data set [3] (setting [4]), the IC50 was above 70.8 µM. For the same compound, the IC50 in data set [3] (setting [5]) is above 70 µM. For the same compound, the IC90 in data set [3] (setting [6]) is above 70 µM.

As usually defined, the CC50 is the concentration at which the toxic effect on the cells reaches its halfway point. What is called melting point is the temperature of the solid-liquid transition. For orientation: IC90 means the concentration needed for an effect of 90%.
